Source: PMC9967758, “Preclinical Efficacy of a PARP-1 Targeted Auger-Emitting Radionuclide in Prostate Cancer” (International Journal of Molecular Sciences, 2023)

Biological target: T1, Poly (ADP-ribose) polymerase-1 (PARP-1) (Homo sapiens, UniProt P09874)
T1 construct: gene PARP1
Assay: radioligand saturation binding in PC-3 tumor xenografts

T1 sequence (P09874 2-1014): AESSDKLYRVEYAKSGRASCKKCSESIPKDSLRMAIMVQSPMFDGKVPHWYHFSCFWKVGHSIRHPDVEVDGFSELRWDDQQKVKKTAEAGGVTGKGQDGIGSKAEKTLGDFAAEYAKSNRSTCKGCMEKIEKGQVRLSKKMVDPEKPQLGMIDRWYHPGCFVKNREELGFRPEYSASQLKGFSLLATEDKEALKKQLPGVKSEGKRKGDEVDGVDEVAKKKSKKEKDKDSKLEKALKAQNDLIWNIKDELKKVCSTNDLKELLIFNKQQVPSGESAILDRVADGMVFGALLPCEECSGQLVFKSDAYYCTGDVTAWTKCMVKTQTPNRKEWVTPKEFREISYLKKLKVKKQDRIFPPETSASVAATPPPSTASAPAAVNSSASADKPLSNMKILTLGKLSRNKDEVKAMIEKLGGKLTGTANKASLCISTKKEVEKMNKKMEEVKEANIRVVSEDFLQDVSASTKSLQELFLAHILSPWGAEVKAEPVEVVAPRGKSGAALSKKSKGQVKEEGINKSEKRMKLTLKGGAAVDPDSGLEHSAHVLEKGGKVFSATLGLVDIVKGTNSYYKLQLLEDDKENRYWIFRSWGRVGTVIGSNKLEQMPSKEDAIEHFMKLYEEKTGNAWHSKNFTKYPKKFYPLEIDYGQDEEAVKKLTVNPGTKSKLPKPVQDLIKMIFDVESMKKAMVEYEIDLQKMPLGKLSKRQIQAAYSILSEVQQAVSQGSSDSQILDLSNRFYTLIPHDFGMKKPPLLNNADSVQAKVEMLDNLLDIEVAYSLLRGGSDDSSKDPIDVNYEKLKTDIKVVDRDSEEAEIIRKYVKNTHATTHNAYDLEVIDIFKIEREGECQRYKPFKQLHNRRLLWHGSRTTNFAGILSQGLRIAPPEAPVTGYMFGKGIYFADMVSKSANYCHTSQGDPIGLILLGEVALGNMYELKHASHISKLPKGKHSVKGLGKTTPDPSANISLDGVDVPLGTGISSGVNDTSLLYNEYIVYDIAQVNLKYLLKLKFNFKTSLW

Kd: 0.58 ± 0.25 nM
Substance: [^77Br]Br-WC-DZ
